Assay results as given in publication PMC12155096 (International Journal of Molecular Sciences, 2025).
pIC50: −log10 of the molar value. Where a name gives a salt, the structure may show the parent alone. Read-outs that look alike come from different tables or passages of the source.

Columns and labels:
human CYP2D6 [1] = target: T1, human CYP2D6 (Homo sapiens, UniProt P10635); assay: biochemical; conditions: for AC50: CYP2D6 AC50 (half-maximal activity concentration)
CYP3A4 [2] = target: T2, CYP3A4 (Homo sapiens, UniProt P08684); assay: biochemical; conditions: for pIC50: CYP3A4 IC50 (half-maximal inhibitory concentration); for AC50: CYP3A4 AC50 (half-maximal activity concentration)
human CYP1A2 [3] = target: T3, human CYP1A2 (Homo sapiens, UniProt P05177); conditions: human
T3 sequence (P05177 1-516): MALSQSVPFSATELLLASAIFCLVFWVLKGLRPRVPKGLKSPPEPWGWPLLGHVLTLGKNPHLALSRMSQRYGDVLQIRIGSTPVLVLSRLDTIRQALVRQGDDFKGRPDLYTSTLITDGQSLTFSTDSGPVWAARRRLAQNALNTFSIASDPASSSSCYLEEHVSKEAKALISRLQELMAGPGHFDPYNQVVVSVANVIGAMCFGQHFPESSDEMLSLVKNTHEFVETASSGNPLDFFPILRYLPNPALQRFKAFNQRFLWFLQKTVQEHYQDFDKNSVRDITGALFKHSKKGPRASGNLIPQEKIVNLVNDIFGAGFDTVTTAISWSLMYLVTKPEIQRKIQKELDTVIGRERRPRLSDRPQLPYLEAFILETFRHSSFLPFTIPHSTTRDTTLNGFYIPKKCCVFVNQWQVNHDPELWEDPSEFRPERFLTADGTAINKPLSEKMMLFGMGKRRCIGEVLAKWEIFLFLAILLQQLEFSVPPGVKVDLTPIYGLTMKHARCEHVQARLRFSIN

human CYP2C9 [4] = target: T4, human CYP2C9 (Homo sapiens, UniProt P11712)
human CYP2D6 [5] = target: T1, human CYP2D6; conditions: human
[6] = target: Photinus pyralis (firefly) luciferase (Photinus pyralis, UniProt P08659); assay: biochemical; assay type: biochemical
human CYP1A2 [7] = target: T3, human CYP1A2; assay: biochemical; conditions: for AC50: CYP1A2 AC50 (half-maximal activity concentration)
CYP3A4 [8] = target: T2, CYP3A4
human CYP2C19 [9] = target: T5, human CYP2C19 (Homo sapiens, UniProt P33261); conditions: for CYP2C19 Efficacy (in parenthesis): human
human CYP2C19 [10] = target: T5, human CYP2C19; assay: biochemical; conditions: for AC50: CYP2C19 AC50 (half-maximal activity concentration)
human CYP2C9 [11] = target: T4, human CYP2C9; assay: biochemical; conditions: for AC50: CYP2C9 AC50 (half-maximal activity concentration)
[12] = CYP2D6 IC50 (half-maximal inhibitory concentration)
[13] = CYP1A2 IC50 (half-maximal inhibitory concentration)
[14] = CYP2C19 IC50 (half-maximal inhibitory concentration)
[15] = CYP2C9 IC50 (half-maximal inhibitory concentration)

T1 sequence (P10635 whole entry): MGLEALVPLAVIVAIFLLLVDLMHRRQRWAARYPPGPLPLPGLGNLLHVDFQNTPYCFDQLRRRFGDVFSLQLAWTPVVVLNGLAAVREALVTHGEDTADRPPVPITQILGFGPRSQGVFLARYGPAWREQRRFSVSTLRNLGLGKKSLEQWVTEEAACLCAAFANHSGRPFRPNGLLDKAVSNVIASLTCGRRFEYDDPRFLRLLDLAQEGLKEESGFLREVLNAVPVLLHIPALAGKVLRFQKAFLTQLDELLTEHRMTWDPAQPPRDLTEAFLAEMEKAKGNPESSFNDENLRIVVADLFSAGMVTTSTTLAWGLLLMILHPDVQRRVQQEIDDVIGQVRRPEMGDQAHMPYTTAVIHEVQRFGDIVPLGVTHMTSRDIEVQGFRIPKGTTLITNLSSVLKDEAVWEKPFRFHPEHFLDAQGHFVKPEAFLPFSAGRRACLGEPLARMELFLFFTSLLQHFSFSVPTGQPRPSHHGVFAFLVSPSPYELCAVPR
Sequence of Photinus pyralis (firefly) luciferase (P08659 whole entry): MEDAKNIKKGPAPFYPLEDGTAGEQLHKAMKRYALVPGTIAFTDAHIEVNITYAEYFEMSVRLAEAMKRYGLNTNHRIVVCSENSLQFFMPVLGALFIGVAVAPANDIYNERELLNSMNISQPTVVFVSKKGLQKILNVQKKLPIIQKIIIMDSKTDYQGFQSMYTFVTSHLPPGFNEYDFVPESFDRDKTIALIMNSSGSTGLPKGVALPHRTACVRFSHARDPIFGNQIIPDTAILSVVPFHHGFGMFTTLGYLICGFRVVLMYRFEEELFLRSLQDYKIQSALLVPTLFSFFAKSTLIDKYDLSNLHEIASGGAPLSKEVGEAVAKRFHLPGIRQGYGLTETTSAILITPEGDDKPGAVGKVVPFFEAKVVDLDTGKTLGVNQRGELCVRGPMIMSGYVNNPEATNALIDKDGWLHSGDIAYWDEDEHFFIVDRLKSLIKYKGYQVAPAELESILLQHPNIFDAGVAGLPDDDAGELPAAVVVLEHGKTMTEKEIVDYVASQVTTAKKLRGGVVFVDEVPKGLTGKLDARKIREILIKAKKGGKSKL
T4 sequence (P11712 whole entry): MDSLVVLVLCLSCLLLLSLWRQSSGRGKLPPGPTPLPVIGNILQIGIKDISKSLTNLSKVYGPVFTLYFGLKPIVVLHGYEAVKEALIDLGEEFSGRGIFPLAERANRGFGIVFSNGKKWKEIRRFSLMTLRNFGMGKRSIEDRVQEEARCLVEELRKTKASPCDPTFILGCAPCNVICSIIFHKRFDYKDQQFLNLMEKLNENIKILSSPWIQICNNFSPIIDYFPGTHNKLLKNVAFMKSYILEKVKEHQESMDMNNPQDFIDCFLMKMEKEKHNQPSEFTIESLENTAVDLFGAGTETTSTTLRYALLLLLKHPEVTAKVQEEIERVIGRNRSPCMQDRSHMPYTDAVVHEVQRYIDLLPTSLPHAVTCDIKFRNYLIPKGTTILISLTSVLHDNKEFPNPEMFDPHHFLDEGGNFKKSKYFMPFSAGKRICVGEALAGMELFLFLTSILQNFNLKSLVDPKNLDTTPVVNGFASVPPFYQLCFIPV
T2 sequence (P08684 whole entry): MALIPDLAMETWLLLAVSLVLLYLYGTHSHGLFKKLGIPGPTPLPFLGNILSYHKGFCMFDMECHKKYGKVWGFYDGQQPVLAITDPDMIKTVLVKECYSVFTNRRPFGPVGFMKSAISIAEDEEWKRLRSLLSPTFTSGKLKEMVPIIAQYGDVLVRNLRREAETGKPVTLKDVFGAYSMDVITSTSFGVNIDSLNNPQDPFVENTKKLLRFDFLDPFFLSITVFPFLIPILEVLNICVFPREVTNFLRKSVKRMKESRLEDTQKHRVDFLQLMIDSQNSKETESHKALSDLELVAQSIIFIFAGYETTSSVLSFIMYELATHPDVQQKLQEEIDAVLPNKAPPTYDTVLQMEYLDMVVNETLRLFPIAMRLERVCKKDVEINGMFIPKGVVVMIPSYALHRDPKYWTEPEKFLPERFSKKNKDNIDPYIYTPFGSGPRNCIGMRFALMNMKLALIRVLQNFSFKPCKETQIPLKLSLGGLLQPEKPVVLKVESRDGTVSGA
T5 sequence (P33261 whole entry): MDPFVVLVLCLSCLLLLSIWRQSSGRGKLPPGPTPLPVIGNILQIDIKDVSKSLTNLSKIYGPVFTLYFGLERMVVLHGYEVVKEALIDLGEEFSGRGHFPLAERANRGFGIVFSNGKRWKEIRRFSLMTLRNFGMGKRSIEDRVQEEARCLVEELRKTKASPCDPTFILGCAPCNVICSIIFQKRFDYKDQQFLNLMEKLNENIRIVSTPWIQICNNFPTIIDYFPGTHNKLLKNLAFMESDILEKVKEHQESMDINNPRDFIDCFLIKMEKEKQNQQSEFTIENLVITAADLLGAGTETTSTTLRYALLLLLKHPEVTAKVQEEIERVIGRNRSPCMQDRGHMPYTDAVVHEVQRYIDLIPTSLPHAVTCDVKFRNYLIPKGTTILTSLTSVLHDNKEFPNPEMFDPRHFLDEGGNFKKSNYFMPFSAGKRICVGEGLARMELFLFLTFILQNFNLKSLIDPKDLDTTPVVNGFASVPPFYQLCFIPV

| SMILES | pIC50 (human CYP2D6 [1]; [12]) | pIC50 (CYP3A4 [2]) | CYP1A2 Efficacy (in parenthesis) (human CYP1A2 [3]) | CYP2D6 Efficacy (in parenthesis) (human CYP2D6 [5]) | Luciferase IC50 (half-maximal inhibitory concentration) [6] | pIC50 (human CYP1A2 [7]; [13]) | CYP3A4 Efficacy (in parenthesis) (CYP3A4 [8]) | pIC50 (human CYP2C19 [10]; [14]) | pIC50 (human CYP2C9 [11]; [15]) | CYP2C9 Efficacy (in parenthesis) (human CYP2C9 [4]; human) | CYP2C19 Efficacy (in parenthesis) (human CYP2C19 [9]) | further results |
| --- | --- | --- | --- | --- | --- | --- | --- | --- | --- | --- | --- | --- |
| CCCCN1CCCC[C@H]1C(=O)Nc1c(C)cccc1C [Levobupivacaine hydrochloride] | 6.24 | 5.02 | 17.38 ± 0 (-62 ± 5) % | 0.57 ± 0.04 (-109 ± 3) % | Inactive | 4.76 | 9.59 ± 2.39 (-54 ± 7) % |  |  |  |  | CYP2C9 IC50 (half-maximal inhibitory concentration) (human CYP2C9 [4]): Inactive; CYP2C19 IC50 (half-maximal inhibitory concentration) (human CYP2C19 [9]): Inactive |
| CCC1COC(Cn2cncn2)(c2ccc(Cl)cc2Cl)O1 (centres unmarked) [Etaconazole] | 4.34 | 7.00 | 31.85 ± 3.66 (-69 ± 5) % | 45.4 ± 9.51 (-42 ± 2) % | Inactive | 4.50 | 0.1 ± 0.01 (-79 ± 1) % | 6.49 | 5.24 | 5.71 ± 1.07 (-109 ± 6) % | 0.32 ± 0.04 (-137 ± 10) % |  |
| CCN(CCCc1ccccc1)CCCc1ccccc1 [Alverine citrate] |  |  |  |  |  |  |  |  |  |  |  | AC50 (human CYP2D6 [1]): 0.87 µM; pIC50 (human CYP2D6 [1]; CYP2D6 IC50): 6.06; AC50 (human CYP2C19 [10]): 7.04 µM; pIC50 (human CYP2C19 [10]; CYP2C19 IC50): 5.15; AC50 (CYP3A4 [2]): 14.4 µM; CYP2C9 IC50 (human CYP2C9 [4]): Inactive; Luciferase IC50 [6]: Inactive; AC50 (human CYP1A2 [7]): 9.92 µM; pIC50 (human CYP1A2 [7]; CYP1A2 IC50): 5.00; CYP3A4 IC50 (CYP3A4 [8]): 14.43 ± 1.84 (65 ± 11) µM |
| CCCCC(C#N)(Cn1cncn1)c1ccc(Cl)cc1 (centres unmarked) [Myclobutanil] | 4.31 | 6.77 | 33.28 ± 11.5 (-34 ± 3) % | 49.32 ± 12.32 (-38 ± 7) % | Inactive | 4.48 | 0.17 ± 0.05 (-75 ± 2) % | 6.18 | 4.60 | 25.18 ± 0 (-109 ± 4) % | 0.66 ± 0.12 (-168 ± 41) % |  |
| FC(F)C(F)(F)OCC(Cn1cncn1)c1ccc(Cl)cc1Cl (centres unmarked) [Tetraconazole] | 4.91 | 6.60 | 6.09 ± 0.84 (-101 ± 7) % | 12.32 ± 3.08 (-113 ± 2) % | Inactive | 5.22 | 0.25 ± 0.06 (-66 ± 2) % | 7.70 | 5.74 | 1.84 ± 0.12 (-114 ± 7) % | 0.02 ± 0.0 (-134 ± 5) % |  |
| CCOP(=S)(OCC)SCn1nnc2ccccc2c1=O [Azinphos-ethyl] |  | 5.73 | 28.65 ± 6 (-88 ± 5) % | 35.57 ± 0 (-87 ± 6) % | Inactive | 4.54 | 1.87 ± 0.34 (-77 ± 3) % | 6.49 |  | 0.57 ± 0.11 (-97 ± 0) % | 0.32 ± 0.06 (-141 ± 5) % | pIC50 (human CYP2D6 [1]): 4.45; pIC50 (human CYP2C9 [11]): 6.24 |
| CCOP(=S)(OCC)Oc1ccc([N+](=O)[O-])cc1 [Parathion] |  | 5.50 | 0.99 ± 0.17 (-96 ± 2) % | 32.26 ± 3.71 (-69 ± 3) % | Inactive | 6.00 | 3.18 ± 0.89 (-79 ± 1) % | 6.77 |  | 1.62 ± 0.19 (-99 ± 2) % | 0.17 ± 0.04 (-144 ± 4) % | pIC50 (human CYP2D6 [1]): 4.49; pIC50 (human CYP2C9 [11]): 5.79 |
| Clc1ccccc1-c1nc(-c2ccncc2)no1 [Pifexole] | 4.70 | 4.47 | 0.39 ± 0.12 (-91 ± 4) % | 20.06 ± 9.42 (-76 ± 17) % |  | 6.41 | 33.57 ± 4.62 (-77 ± 10) % | 6.13 | 5.16 | 6.98 ± 3.95 (-79 ± 12) % | 0.74 ± 0.41 (-105 ± 12) % | pIC50 [6]: 5.49 |
| CC(C1CC1)C(O)(Cn1cncn1)c1ccc(Cl)cc1 (centres unmarked) [Cyproconazole] | 4.42 | 6.01 | 30.37 ± 9.95 (-33 ± 2) % | 38.25 ± 2.49 (-72 ± 6) % | Inactive | 4.52 | 0.97 ± 0.57 (-70 ± 7) % | 6.52 | 6.89 | 0.13 ± 0.04 (-105 ± 6) % | 0.3 ± 0.07 (-141 ± 28) % |  |
| CCCC1COC(Cn2cncn2)(c2ccc(Cl)cc2Cl)O1 (centres unmarked) [Propiconazole] | 4.43 | 7.22 | 24.72 ± 6.17 (-104 ± 9) % | 37.02 ± 2.51 (-73 ± 5) % | Inactive | 4.61 | 0.06 ± 0.02 (-71 ± 3) % | 6.28 | 5.66 | 2.18 ± 0.37 (-104 ± 6) % | 0.52 ± 0.14 (-134 ± 10) % |  |
| N#Cc1c(Cl)c(Cl)c(Cl)c(C#N)c1Cl [Chlorothalonil] | 4.46 | 5.95 | 1.03 ± 0.19 (-97 ± 4) % | 34.91 ± 0 (-58 ± 3) % | Inactive | 5.99 | 1.11 ± 0.13 (-78 ± 2) % | 4.42 | 5.18 | 6.61 ± 1.87 (-85 ± 10) % | 38.42 ± 34.42 (-114 ± 10) % |  |
| C=CCOC(=O)C(C)(C)OC(=O)c1cc(-n2c(=O)cc(C(F)(F)F)n(C)c2=O)ccc1Cl [Butafenacil] | 4.57 | 6.29 | 35.06 ± 4.03 (-48 ± 4) % | 26.96 ± 4.59 (-70 ± 7) % | Inactive | 4.46 | 0.51 ± 0.14 (-90 ± 4) % | 4.30 | 4.63 | 23.68 ± 7.01 (-109 ± 17) % | 50.02 ± 19.28 (-89 ± 23) % |  |
| CCCOC/C(=N\c1ccc(Cl)cc1C(F)(F)F)n1ccnc1 [Triflumizole] | 4.46 | 6.68 | 9.3 ± 0.63 (-102 ± 6) % | 34.28 ± 2.23 (-99 ± 9) % | Inactive | 5.03 | 0.21 ± 0.07 (-78 ± 2) % | 6.44 | 5.41 | 3.92 ± 0.98 (-103 ± 3) % | 0.36 ± 0.3 (-125 ± 6) % |  |
| COC(=O)N(OC)c1ccccc1COc1ccn(-c2ccc(Cl)cc2)n1 [Pyraclostrobin] | 4.49 |  | 0.99 ± 0.24 (-102 ± 3) % | 32.63 ± 15.32 (-79 ± 28) % |  | 6.00 | 1.31 ± 0.09 (52 ± 7) % | 6.24 | 5.27 | 5.35 ± 1.51 (-104 ± 6) % | 0.57 ± 0.25 (-152 ± 29) % | AC50 (human CYP2D6 [1]): 32.6 µM; AC50 (human CYP2C19 [10]): 0.57 µM; AC50 (CYP3A4 [2]): 1.31 µM; AC50 (human CYP2C9 [11]): 5.35 µM; pIC50 [6]: 4.25; AC50 (human CYP1A2 [7]): 0.99 µM; CYP3A4 IC50 (half-maximal inhibitory concentration) (CYP3A4 [8]): 1.31 ± 0.09 (52 ± 7) µM |
| O=C1C(Cl)C(CCl)CN1c1cccc(C(F)(F)F)c1 (centres unmarked) [Flurochloridone] | 4.44 | 5.16 |  |  | Inactive | 5.98 | 6.98 ± 2.77 (42 ± 7) % | 4.91 |  |  |  | AC50 (human CYP2D6 [1]): 35.9 µM; AC50 (human CYP2C19 [10]): 12.3 µM; AC50 (human CYP2C9 [11]): 7.82 µM; CYP2C9 IC50 (half-maximal inhibitory concentration) (human CYP2C9 [4]; human): 7.82 ± 1.95 (82 ± 14) µM; AC50 (human CYP1A2 [7]): 1.04 µM |
